Source: patent US20070213346A1, “Substituted 4-Alkyl-And 4-Alkanoyl-Piperidine Derivatives And Their Use As Neurokinin Antagonists” (priority 2004, published 2007)

Columns and labels:
Type in all cases: cell-based
NK1 = NK1 (Homo sapiens, UniProt P25103); test: Signal transduction (ST), intracellular Ca++ FLIPR, NK1; settings: antagonist, Ca++ transient peak, read-out: NK1 pIC50 (converted)
Method: (§1) This test evaluates in vitro functional NK1 antagonistic activity. For the measurements of intracellular Ca^++ concentrations the cells were grown on 96-well (black wall/transparent bottom) plates from Costar for 2 days until they reached confluence. The cells were loaded with 2 μM Fluo3 in DMEM containing 0.1% BSA and 2.5 mM probenecid for 1 h at 37° C. They were washed 3× with a Krebs buffer (140 mM NaCl, 1 mM MgCl2x6H2O, 5 mM KCl, 10 mM glucose, 5 mM HEPES; 1.25 mM CaCl2; pH 7.4) containing 2.5 mM probenecid and 0.1% BSA (Ca^++-buffer). The cells were preincubated with a concentration range of antagonists for 20 min at RT and Ca^++-signals after addition of the agonists were measured in a Fluorescence Image Plate Reader (FLIPR from Molecular Devices, Crawley, England). The peak of the Ca^++-transient was considered as the relevant signal and the mean values of corresponding wells were analysed as described below.
The sigmoidal dose response curves were analysed by computerised curve-fitting, using the GraphPad program. The EC50-value of a compound is the effective dose showing 50% of maximal effect. For mean curves the response to the agonist with the highest potency was normalised to 100%. For antagonist responses the IC50-value was calculated using non-linear regression. […]

NK3 = target: T1, NK3 (Homo sapiens, UniProt P29371); test: Signal transduction (ST), intracellular Ca++ FLIPR, NK3; settings: antagonist, Ca++ transient peak, read-out: NK3 pIC50 (converted)
T1 sequence (P29371 1-465): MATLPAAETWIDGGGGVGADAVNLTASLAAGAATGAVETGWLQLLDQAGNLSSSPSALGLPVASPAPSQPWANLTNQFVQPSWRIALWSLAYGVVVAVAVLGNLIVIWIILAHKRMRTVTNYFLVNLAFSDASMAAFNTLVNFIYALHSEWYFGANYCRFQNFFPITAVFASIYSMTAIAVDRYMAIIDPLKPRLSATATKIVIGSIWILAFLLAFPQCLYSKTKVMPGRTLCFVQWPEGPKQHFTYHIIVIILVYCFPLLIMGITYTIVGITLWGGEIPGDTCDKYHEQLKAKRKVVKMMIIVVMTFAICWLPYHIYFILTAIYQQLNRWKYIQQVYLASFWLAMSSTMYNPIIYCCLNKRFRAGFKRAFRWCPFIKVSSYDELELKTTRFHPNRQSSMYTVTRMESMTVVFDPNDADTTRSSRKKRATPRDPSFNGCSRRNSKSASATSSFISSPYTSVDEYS
Method: [The source words this procedure for another target and reports this target under the same test.] as §1
(§2) The sigmoidal dose response curves were analysed by computerised curve-fitting, using the GraphPad program. The EC50-value of a compound is the effective dose showing 50% of maximal effect. For mean curves the response to the agonist with the highest potency was normalised to 100%. For antagonist responses the IC50-value was calculated using non-linear regression.
(§3) The last columns indicates—without being limited thereto—for which use the compounds might be most suitable. Of course, since for some neurokinin receptors no data was determined, it is obvious that these compounds might be attributed to another suitable use.

NK2 = target: T2, NK2 (Homo sapiens, UniProt P21452); test: Signal transduction (ST), intracellular Ca++ FLIPR, NK2; settings: antagonist, Ca++ transient peak, read-out: NK2 pIC50 (converted)
T2 sequence (P21452 1-398): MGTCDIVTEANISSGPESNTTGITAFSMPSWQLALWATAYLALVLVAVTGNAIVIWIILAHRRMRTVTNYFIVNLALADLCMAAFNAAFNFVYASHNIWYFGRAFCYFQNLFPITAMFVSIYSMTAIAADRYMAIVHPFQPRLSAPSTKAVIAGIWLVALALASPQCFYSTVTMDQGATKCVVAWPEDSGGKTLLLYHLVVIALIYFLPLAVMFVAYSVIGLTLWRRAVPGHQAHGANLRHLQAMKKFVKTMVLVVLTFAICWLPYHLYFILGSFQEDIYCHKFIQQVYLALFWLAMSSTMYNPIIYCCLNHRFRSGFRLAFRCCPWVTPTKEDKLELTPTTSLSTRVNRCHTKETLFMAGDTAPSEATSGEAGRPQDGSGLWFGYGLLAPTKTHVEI
Method: [The source words this procedure for another target and reports this target under the same test.] as §1, §2, §3

Chain of NK1 (P25103 whole entry): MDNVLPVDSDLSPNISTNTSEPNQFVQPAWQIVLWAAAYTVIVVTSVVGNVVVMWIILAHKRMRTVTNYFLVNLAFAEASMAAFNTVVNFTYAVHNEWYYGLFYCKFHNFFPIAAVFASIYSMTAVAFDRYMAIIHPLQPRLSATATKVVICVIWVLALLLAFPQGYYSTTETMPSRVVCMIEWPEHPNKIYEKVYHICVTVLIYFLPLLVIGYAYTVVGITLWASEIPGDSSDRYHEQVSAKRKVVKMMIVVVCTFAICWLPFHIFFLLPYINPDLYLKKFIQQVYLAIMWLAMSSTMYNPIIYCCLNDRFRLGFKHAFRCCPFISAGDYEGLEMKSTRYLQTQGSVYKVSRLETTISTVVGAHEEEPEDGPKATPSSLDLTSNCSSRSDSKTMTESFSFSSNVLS

Structure (SMILES)	IC50 (NK1)	IC50 (NK3)	IC50 (NK2)
Cc1cc(C)cc(C(=O)N2CCC(N3CCN(CC4CCN(C(=O)c5cc(C(F)(F)F)cc(C(F)(F)F)c5)C(Cc5ccccc5)C4)CC3)CC2)c1 (centres unmarked) [Compound 12]	316 nM	–	–
COC1(CN2CCN(C3CCN(C(=O)c4ccoc4)C3)CC2)CCN(C(=O)c2cc(C(F)(F)F)cc(C(F)(F)F)c2)C(Cc2ccccc2)C1 (centres unmarked) [Compound 85]	64.6 nM	> 10000 nM	–
Cn1cc(C(=O)N2CCC(N3CCN(CC4CCN(C(=O)c5cc(C(F)(F)F)cc(C(F)(F)F)c5)C(Cc5ccccc5)C4)CC3)CC2)c2ccccc21 (centres unmarked) [Compound 40]	347 nM	–	–
Cn1cccc1C(=O)N1CCC(N2CCN(CC3CCN(C(=O)c4cc(C(F)(F)F)cc(C(F)(F)F)c4)C(Cc4ccccc4)C3)CC2)CC1 (centres unmarked) [Compound 33]	224 nM	–	–
COc1cc(CC(=O)N2CCC(N3CCN(CC4CCN(C(=O)c5cc(C(F)(F)F)cc(C(F)(F)F)c5)C(Cc5ccccc5)C4)CC3)CC2)cc(OC)c1OC (centres unmarked) [Compound 53]	85.1 nM	–	–
COC1(CN2CCN(C3CCN(C(=O)c4snnc4C)C3)CC2)CCN(C(=O)c2cc(C(F)(F)F)cc(C(F)(F)F)c2)C(Cc2ccccc2)C1 (centres unmarked) [Compound 86]	67.6 nM	10200 nM	–
O=C(c1cc2ccccc2oc1=O)N1CCC(N2CCN(C[C@H]3CCN(C(=O)c4cc(C(F)(F)F)cc(C(F)(F)F)c4)[C@H](Cc4ccccc4)C3)CC2)CC1 (relative stereo) [Compound 50]	91.2 nM	–	–
O=C(c1ccc2ccccc2n1)N1CCC(N2CCN(CC3CCN(C(=O)c4cc(C(F)(F)F)cc(C(F)(F)F)c4)C(Cc4ccccc4)C3)CC2)CC1 (centres unmarked) [Compound 16]	138 nM	–	–
O=C(c1ccccn1)N1CCC(N2CCN(C[C@H]3CCN(C(=O)c4cc(C(F)(F)F)cc(C(F)(F)F)c4)[C@H](Cc4ccccc4)C3)CC2)CC1 [Compound 47]	204 nM	–	–
Cc1cccc(C(=O)N2CCC(N3CCN(C[C@H]4CCN(C(=O)c5cc(C(F)(F)F)cc(C(F)(F)F)c5)[C@H](Cc5ccccc5)C4)CC3)CC2)c1 [Compound 41]	166 nM	–	–
O=C(c1ccccc1O)N1CCC(N2CCN(CC3CCN(C(=O)c4cc(C(F)(F)F)cc(C(F)(F)F)c4)C(Cc4ccccc4)C3)CC2)CC1 (centres unmarked) [Compound 43]	123 nM	–	–
COC1(CN2CCN(C3CCN(C(=O)c4cccnc4)C3)CC2)CCN(C(=O)c2cc(C(F)(F)F)cc(C(F)(F)F)c2)C(Cc2ccccc2)C1 (centres unmarked) [Compound 88]	61.7 nM	> 10000 nM	–
O=C(c1cccc(O)c1)N1CCC(N2CCN(CC3CCN(C(=O)c4cc(C(F)(F)F)cc(C(F)(F)F)c4)C(Cc4ccccc4)C3)CC2)CC1 (centres unmarked) [Compound 44]	87.1 nM	–	–
COC1(CN2CCN(C3CCN(C(=O)c4ccccc4)C3)CC2)CCN(C(=O)c2cc(C(F)(F)F)cc(C(F)(F)F)c2)C(Cc2ccccc2)C1 (centres unmarked) [Compound 87]	115 nM	> 10000 nM	–
COC1(CN2CCN(C3CCN(S(=O)(=O)c4c(C)noc4C)C3)CC2)CCN(C(=O)c2cc(C(F)(F)F)cc(C(F)(F)F)c2)C(Cc2ccccc2)C1 (centres unmarked) [Compound 89]	60.3 nM	3550 nM	–

Results, then the compound that gave them:

IC50 (NK1)	IC50 (NK3)	IC50 (NK2)	Structure (SMILES)
120 nM	–	–	O=C(Cc1c[nH]cn1)N1CCC(N2CCN(CC3CCN(C(=O)c4cc(C(F)(F)F)cc(C(F)(F)F)c4)C(Cc4ccccc4)C3)CC2)CC1 (centres unmarked) [Compound 51]
31.6 nM	> 10000 nM	–	O=C(c1ccccc1Cl)N1CCC(N2CCN(C(=O)[C@H]3CCN(C(=O)c4cc(C(F)(F)F)cc(C(F)(F)F)c4)[C@H](Cc4ccccc4)C3)CC2)C1 (some centres unmarked) [Compound 72]
25.7 nM	–	> 10000 nM	O=C(c1cccnc1)N1CCC(N2CCN(C[C@H]3CCN(C(=O)c4cc(C(F)(F)F)cc(C(F)(F)F)c4)[C@H](Cc4ccccc4)C3)CC2)CC1 [Compound 48]
41.7 nM	> 10000 nM	–	O=C(CC1CCN(C(=O)c2cc(C(F)(F)F)cc(C(F)(F)F)c2)[C@@H](Cc2ccccc2)C1)N1CCN(C2CCN(C(=O)C3CCOC3)C2)CC1 (mixture of isomers) [Compound 73]
22.9 nM	2450 nM	–	O=C(c1ccoc1)N1CCC(N2CCN(C(=O)[C@H]3CCN(C(=O)c4cc(C(F)(F)F)cc(C(F)(F)F)c4)[C@H](Cc4ccccc4)C3)CC2)CC1 [Compound 57]
13.2 nM	2510 nM	–	O=C(C1CCN(C(=O)c2cc(C(F)(F)F)cc(C(F)(F)F)c2)C(Cc2ccccc2)C1)N1CCN(C2CCN(S(=O)(=O)c3cccs3)C2)CC1 (centres unmarked) [Compound 13]
200 nM	> 10000 nM	–	COC1(CN2CCN(C3CCNC3)CC2)CCN(C(=O)c2cc(C(F)(F)F)cc(C(F)(F)F)c2)C(Cc2ccccc2)C1 (centres unmarked) [Compound 81]
302 nM	> 10000 nM	–	O=C(CC1CCN(C(=O)c2cc(C(F)(F)F)cc(C(F)(F)F)c2)C(Cc2ccccc2)C1)N1CCN(C2CCNC2)CC1 (centres unmarked) [Compound 8]
75.9 nM	> 10000 nM	–	O=C([C@H]1CCN(C(=O)c2cc(C(F)(F)F)cc(C(F)(F)F)c2)[C@H](Cc2ccccc2)C1)N1CCN(C2CCN(Cc3ccccc3)C2)CC1 (some centres unmarked) [Compound 67]
8.71 nM	> 10000 nM	–	Cc1nnsc1C(=O)N1CCC(N2CCN(C(=O)[C@H]3CCN(C(=O)c4cc(C(F)(F)F)cc(C(F)(F)F)c4)[C@H](Cc4ccccc4)C3)CC2)CC1 [Compound 58]
13.2 nM	6610 nM	–	O=C(C1CC1)N1CCC(N2CCN(C(=O)[C@H]3CCN(C(=O)c4cc(C(F)(F)F)cc(C(F)(F)F)c4)[C@H](Cc4ccccc4)C3)CC2)C1 (some centres unmarked) [Compound 68]
209 nM	–	–	Cn1cccc1C(=O)N1CCC(N2CCN(C[C@H]3CCN(C(=O)c4cc(C(F)(F)F)cc(C(F)(F)F)c4)[C@H](Cc4ccccc4)C3)CC2)CC1 [Compound 34]
214 nM	6760 nM	–	O=C([C@H]1CCN(C(=O)c2cc(C(F)(F)F)cc(C(F)(F)F)c2)[C@H](Cc2ccccc2)C1)N1CCN(C2CCNC2)CC1 (some centres unmarked) [Compound 66]
25.7 nM	> 10000 nM	–	O=C(c1ccoc1)N1CCC(N2CCN(C(=O)[C@H]3CCN(C(=O)c4cc(C(F)(F)F)cc(C(F)(F)F)c4)[C@H](Cc4ccccc4)C3)CC2)C1 (some centres unmarked) [Compound 70]
347 nM	> 10000 nM	–	O=C(C1CCN(C(=O)c2cc(C(F)(F)F)cc(C(F)(F)F)c2)C(Cc2ccccc2)C1)N1CCN(C2CCN(Cc3ccccc3)CC2)CC1 (centres unmarked) [Compound 3]
39.8 nM	6030 nM	–	O=C(C1CCOC1)N1CCC(N2CCN(C(=O)[C@H]3CCN(C(=O)c4cc(C(F)(F)F)cc(C(F)(F)F)c4)[C@H](Cc4ccccc4)C3)CC2)C1 (some centres unmarked) [Compound 69]
46.8 nM	–	–	Cc1cc(C(=O)N2CCC(N3CCN(C[C@H]4CCN(C(=O)c5cc(C(F)(F)F)cc(C(F)(F)F)c5)[C@H](Cc5ccccc5)C4)CC3)CC2)no1 [Compound 36]
209 nM	> 10000 nM	–	CC(C)(C)OC(=O)N1CCC(N2CCN(CC3CCN(C(=O)c4cc(C(F)(F)F)cc(C(F)(F)F)c4)C(Cc4ccccc4)C3)CC2)CC1 (centres unmarked) [Compound 5]
174 nM	> 10000 nM	–	CC(C)(C)OC(=O)N1CCC(N2CCN(C(=O)CC3CCN(C(=O)c4cc(C(F)(F)F)cc(C(F)(F)F)c4)[C@@H](Cc4ccccc4)C3)CC2)C1 (mixture of isomers) [Compound 7]
251 nM	> 10000 nM	–	O=C(C1CCN(C(=O)c2cc(C(F)(F)F)cc(C(F)(F)F)c2)C(Cc2ccccc2)C1)N1CCN(C2CCNCC2)CC1 (centres unmarked) [Compound 4]
10.7 nM	9550 nM	–	O=C(c1ccccc1)N1CCC(N2CCN(C(=O)[C@H]3CCN(C(=O)c4cc(C(F)(F)F)cc(C(F)(F)F)c4)[C@H](Cc4ccccc4)C3)CC2)CC1 [Compound 59]
